Read-outs that look alike come from different tables or passages of the source.
What was measured:
Format in all cases: biochemical
[1] = biological target: T1, recombinant human FAPα (rhFAPα) (Homo sapiens, UniProt Q12884); experiment: FAPα enzymatic exopeptidase (dipeptidase) activity assay; details: for inhibition at 1 µM: read-out: rhFAPα (% exo inh @ 1 μM); for IC50: exopeptidase, read-out: rhFAPα (exo IC50)
T1 construct: purchased R&S system (so in the source)
T1 sequence (Q12884 1-760): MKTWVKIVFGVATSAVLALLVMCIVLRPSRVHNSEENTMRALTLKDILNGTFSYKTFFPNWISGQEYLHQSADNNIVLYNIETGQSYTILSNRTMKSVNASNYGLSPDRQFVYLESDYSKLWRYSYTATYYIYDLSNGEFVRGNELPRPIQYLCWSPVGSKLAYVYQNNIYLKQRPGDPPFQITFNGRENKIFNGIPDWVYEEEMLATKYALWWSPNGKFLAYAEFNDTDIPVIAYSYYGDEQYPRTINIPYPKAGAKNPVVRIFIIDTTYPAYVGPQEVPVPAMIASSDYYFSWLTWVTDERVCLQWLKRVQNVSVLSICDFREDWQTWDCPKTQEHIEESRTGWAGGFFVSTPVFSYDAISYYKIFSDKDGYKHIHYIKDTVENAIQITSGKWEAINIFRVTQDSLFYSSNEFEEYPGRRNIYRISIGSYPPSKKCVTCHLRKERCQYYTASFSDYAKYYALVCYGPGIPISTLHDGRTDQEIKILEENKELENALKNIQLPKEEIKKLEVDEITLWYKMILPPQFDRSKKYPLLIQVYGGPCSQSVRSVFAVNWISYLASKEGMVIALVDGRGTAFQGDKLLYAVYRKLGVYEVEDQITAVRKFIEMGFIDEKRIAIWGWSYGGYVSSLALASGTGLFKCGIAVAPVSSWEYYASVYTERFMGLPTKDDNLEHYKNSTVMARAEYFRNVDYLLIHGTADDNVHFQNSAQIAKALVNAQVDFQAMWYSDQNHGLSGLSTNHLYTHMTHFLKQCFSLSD

[2] = biological target: T2, recombinant human DPPIV (rhDPPIV) (Homo sapiens, UniProt P27487); experiment: DPPIV enzymatic activity assay; details: H-Gly-Pro-pNA substrate
T2 construct: purchased R&S system (so in the source)

[3] = biological target: T3, recombinant human PREP (rhPREP) (Homo sapiens, UniProt P48147); experiment: PREP enzymatic activity assay; details: Z-Gly-Pro-AMC substrate
T3 sequence (P48147 1-710): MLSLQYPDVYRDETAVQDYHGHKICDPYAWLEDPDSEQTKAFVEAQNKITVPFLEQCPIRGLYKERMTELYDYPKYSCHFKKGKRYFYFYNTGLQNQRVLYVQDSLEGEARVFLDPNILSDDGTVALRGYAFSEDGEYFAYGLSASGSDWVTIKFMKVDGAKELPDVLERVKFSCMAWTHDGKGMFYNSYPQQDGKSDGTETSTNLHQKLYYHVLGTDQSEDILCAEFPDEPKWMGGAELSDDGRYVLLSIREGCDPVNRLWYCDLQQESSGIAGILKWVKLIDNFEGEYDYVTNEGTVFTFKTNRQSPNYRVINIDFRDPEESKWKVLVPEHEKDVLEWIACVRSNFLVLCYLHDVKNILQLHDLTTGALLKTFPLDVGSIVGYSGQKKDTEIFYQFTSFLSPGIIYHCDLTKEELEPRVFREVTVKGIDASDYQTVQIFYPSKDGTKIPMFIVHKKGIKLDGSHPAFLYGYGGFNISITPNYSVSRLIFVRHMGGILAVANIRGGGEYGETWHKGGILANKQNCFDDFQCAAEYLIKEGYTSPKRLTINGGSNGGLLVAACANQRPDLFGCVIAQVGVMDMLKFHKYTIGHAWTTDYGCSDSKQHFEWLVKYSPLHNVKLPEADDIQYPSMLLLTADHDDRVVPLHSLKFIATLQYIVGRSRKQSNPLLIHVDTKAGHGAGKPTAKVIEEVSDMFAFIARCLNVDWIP
Method: (§1) 7-Amino-4-Methylcoumarin (AMC) release was detected by measuring fluorescence at Ex/Em 380/460 nm using a Multifunction Microplate Reader (Synergy 4, Biotek). All measurements were carried out in triplicate.

[4] = biological target: T4, recombinant human DPP9 (rhDPP9) (Homo sapiens, UniProt Q86TI2); experiment: DPP9 enzymatic activity assay; details: H-Gly-Pro-AMC substrate
T4 construct: purchased R&S system (so in the source)
Method: as §1

[5] = 1 μM test compound, Z-Gly-Pro-AMC substrate

T4 sequence (Q86TI2 whole entry): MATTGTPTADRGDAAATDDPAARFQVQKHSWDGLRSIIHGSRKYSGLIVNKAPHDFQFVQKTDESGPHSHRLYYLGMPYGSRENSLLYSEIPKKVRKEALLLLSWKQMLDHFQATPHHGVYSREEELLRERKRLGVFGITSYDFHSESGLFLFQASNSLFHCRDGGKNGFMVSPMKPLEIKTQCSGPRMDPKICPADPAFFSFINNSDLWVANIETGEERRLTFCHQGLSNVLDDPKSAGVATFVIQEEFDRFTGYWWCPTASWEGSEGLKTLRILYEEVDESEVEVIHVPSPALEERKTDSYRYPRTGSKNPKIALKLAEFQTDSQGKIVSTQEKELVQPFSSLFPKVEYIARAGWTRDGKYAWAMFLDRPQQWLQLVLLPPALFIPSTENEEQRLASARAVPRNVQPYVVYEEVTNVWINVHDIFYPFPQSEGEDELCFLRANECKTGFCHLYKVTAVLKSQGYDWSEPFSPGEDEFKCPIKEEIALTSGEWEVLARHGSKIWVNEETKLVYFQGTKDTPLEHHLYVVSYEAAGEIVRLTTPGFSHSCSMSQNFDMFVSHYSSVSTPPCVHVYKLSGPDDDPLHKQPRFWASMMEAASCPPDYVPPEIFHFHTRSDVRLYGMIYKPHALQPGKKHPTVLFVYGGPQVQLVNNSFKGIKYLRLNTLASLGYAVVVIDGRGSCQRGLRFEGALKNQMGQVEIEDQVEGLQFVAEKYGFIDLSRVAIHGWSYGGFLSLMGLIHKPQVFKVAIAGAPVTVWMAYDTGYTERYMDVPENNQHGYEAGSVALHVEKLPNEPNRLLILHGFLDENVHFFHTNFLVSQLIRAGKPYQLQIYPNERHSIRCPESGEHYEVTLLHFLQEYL
T2 sequence (P27487 whole entry): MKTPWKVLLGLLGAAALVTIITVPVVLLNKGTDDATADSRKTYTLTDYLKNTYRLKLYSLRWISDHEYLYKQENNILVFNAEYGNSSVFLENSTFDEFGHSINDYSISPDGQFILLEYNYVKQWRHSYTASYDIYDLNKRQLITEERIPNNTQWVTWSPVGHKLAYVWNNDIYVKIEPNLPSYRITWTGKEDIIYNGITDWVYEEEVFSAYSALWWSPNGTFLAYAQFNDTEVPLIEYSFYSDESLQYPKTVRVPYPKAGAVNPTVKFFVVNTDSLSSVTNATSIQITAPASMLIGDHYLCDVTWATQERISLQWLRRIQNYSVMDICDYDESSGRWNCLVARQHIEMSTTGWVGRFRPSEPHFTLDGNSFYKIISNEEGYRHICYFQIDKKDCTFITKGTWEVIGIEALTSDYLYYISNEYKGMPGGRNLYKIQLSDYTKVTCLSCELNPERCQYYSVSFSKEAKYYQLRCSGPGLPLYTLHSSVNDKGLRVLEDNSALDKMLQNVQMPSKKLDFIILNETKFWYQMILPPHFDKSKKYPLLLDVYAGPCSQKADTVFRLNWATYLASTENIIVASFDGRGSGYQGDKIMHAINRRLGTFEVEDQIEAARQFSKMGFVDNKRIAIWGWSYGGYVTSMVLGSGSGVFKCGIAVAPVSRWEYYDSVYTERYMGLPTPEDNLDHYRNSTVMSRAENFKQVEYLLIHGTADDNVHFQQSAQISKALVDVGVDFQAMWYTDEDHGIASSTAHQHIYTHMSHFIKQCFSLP

SMILES | inhibition at 1 µM [1, 5] [%] | IC50 ([1]; Table 2, Z-Gly-Pro-AMC) [nM] | IC50 ([1]; Table 3) [nM] | IC50 [2] [nM] | IC50 [3] [nM] | IC50 [4] [nM] | inhibition at 1 µM [1] [%]
N#Cc1ccc(C(=O)NCC(=O)N2CC(F)(F)C[C@H]2C#N)cc1F [Compound 15, (S)-4-cyano-N-(2-(2-cyano-4,4-difluoropyrrolidin-1-yl)-2-oxoethyl)-3-fluorobenzamide] | 25 to 50 |  |  |  |  |  | 
N#Cc1ccc(C(=O)NCC(=O)N2CC(F)(F)C[C@H]2C#N)cc1 [Compound 17, (S)-4-cyano-N-(2-(2-cyano-4,4-difluoropyrrolidin-1-yl)-2-oxoethyl)benzamide] | 25 to 50 |  |  |  |  |  | 
N#Cc1ccc(C(=O)NCC(=O)N2CC(F)(F)C[C@H]2C#N)c(C(F)(F)F)c1 [Compound 18, (S)-4-cyano-N-(2-(2-cyano-4,4-difluoropyrrolidin-1-yl)-2-oxoethyl)-2-(trifluoromethyl)benzamide] | 25 to 50 |  |  |  |  |  | 
N#C[C@@H]1CC(F)(F)CN1C(=O)CNC(=O)c1ccc2nccc(-c3ccccc3)c2c1 [Compound 19, (S)—N-(2-(2-cyano-4,4-difluoropyrrolidin-1-yl)-2-oxoethyl)-4-phenylquinoline-6-carboxamide] | > 50 | < 1000 | < 1000 | > 10000 | > 10000 |  | 
CCN1C(=O)CC[C@@H](C(=O)NCC(=O)N2CC(F)(F)C[C@H]2C#N)[C@@H]1c1ccccc1 [Compound 20, (2R,3R)—N-(2-((S)-2-cyano-4,4-difluoropyrrolidin-1-yl)-2-oxoethyl)-1-ethyl-6-oxo-2-phenylpiperidine-3-carboxamide] | 25 to 50 |  |  |  |  |  | 
N#C[C@@H]1CC(F)(F)CN1C(=O)CNC(=O)c1ccc(=O)n2c1CCCCC2 [Compound 21, (S)—N-(2-(2-cyano-4,4-difluoropyrrolidin-1-yl)-2-oxoethyl)-4-oxo-4,6,7,8,9,10-hexahydropyrido[1,2-a]azepine-1-carboxamide] | > 50 | < 1000 | < 1000 | > 10000 | 1000 to 10000 | > 10000 | 
N#C[C@@H]1CC(F)(F)CN1C(=O)CNC(=O)c1coc(=O)c2ccccc12 [Compound 22, (S)—N-(2-(2-cyano-4,4-difluoropyrrolidin-1-yl)-2-oxoethyl)-1-oxo-1H-isochromene-4-carboxamide] | > 50 | < 1000 | < 1000 | > 10000 | 1000 to 10000 |  | 
N#C[C@@H]1CC(F)(F)CN1C(=O)C1(NC(=O)c2c[nH]c(=O)c3ccccc23)CC1 [Compound 23, (S)—N-(1-(2-cyano-4,4-difluoropyrrolidine-1-carbonyl)cyclopropyl)-1-oxo-1,2-dihydroisoquinoline-4-carboxamide] | < 25 |  |  |  |  |  | 
CC(NC(=O)c1c[nH]c(=O)c2ccccc12)C(=O)N1CC(F)(F)C[C@H]1C#N (stereo partly drawn) [Compound 25, N-(1-((S)-2-cyano-4,4-difluoropyrrolidin-1-yl)-1-oxopropan-2-yl)-1-oxo-1,2-dihydroisoquinoline-4-carboxamide] |  |  |  |  |  |  | < 25
N#C[C@@H]1CC(F)(F)CN1C(=O)CNC(=O)c1c[nH]c(=O)cc1-c1ccccc1 [Compound 29, (S)—N-(2-(2-cyano-4,4-difluoropyrrolidin-1-yl)-2-oxoethyl)-6-oxo-4-phenyl-1,6-dihydropyridine-3-carboxamide] | > 50 | < 1000 | < 1000 | 1000 to 10000 | > 10000 | > 10000 | 
COc1cnccc1C(=O)NCC(=O)N1CC(F)(F)C[C@H]1C#N [Compound 36] | > 50 | < 1000 | < 1000 | > 10000 |  |  | 
N#C[C@@H]1CC(F)(F)CN1C(=O)CNC(=O)c1ccncc1N1CCCCC1 [Compound 42] | > 50 | < 1000 | < 1000 | > 10000 | > 10000 | > 10000 | 
N#C[C@@H]1CC(F)(F)CN1C(=O)CNC(=O)c1ccncc1C1=CCCCC1 [Compound 43, N-(2-((S)-2-cyano-4,4-difluoropyrrolidin-1-yl)-2-oxoethyl)-3-(cyclohex-1-en-1-yl)isonicotinamide] | > 50 | < 1000 | < 1000 | > 10000 | > 10000 | 1000 to 10000 | 
N#C[C@@H]1CC(F)(F)CN1C(=O)CNC(=O)c1ccncc1-c1ccnc2ccccc12 [Compound 51, (S)—N-(2-(2-cyano-4,4-difluoropyrrolidin-1-yl)-2-oxoethyl)-3-(quinolin-4-yl)isonicotinamide] | > 50 | < 1000 | < 1000 | 1000 to 10000 | > 10000 | > 10000 | 
Cc1ccccc1-c1cnccc1C(=O)NCC(=O)N1CC(F)(F)C[C@H]1C#N [Compound 64, (S)—N-(2-(2-cyano-4,4-difluoropyrrolidin-1-yl)-2-oxoethyl)-3-(o-tolyl)isonicotinamide] | > 50 | < 1000 | < 1000 | > 10000 | > 10000 | > 10000 | 
N#C[C@@H]1CC(F)(F)CN1C(=O)CNC(=O)C1=NNC(=O)C2C=CC=CC12 (some centres unmarked) [Compound 80] | > 50 | < 1000 | < 1000 | > 10000 |  |  | 
Cn1nc(C(=O)NCC(=O)N2CC(F)(F)C[C@H]2C#N)c2ccccc2c1=O [Compound 81] | < 25 |  |  |  |  |  | 
N#C[C@@H]1CC(F)(F)CN1C(=O)CCCNC(=O)c1c[nH]c(=O)c2ccccc12 [Compound 82, (S)—N-(4-(2-cyano-4,4-difluoropyrrolidin-1-yl)-4-oxobutyl)-1-oxo-1,2-dihydroisoquinoline-4-carboxamide] | < 25 |  |  |  |  |  | 
N#C[C@@H]1CC(F)(F)CN1C(=O)CNC(=O)c1ccc2[nH]ncc2c1 [Compound 83] | 25 to 50 |  |  |  |  |  | 
N#C[C@@H]1CC(F)(F)CN1C(=O)CNC(=O)c1cc2ccncc2o1 [Compound 84] | 25 to 50 |  |  |  |  |  | 
N#C[C@@H]1CC(F)(F)CN1C(=O)CNC(=O)c1ccn2nccc2c1 [Compound 85] | > 50 |  |  |  |  |  | 
COc1ccc(C(=O)NCC(=O)N2CC(F)(F)C[C@H]2C#N)c(-c2ccccc2)n1 [Compound 86, (S)—N-(2-(2-cyano-4,4-difluoropyrrolidin-1-yl)-2-oxoethyl)-6-methoxy-2-phenylnicotinamide] | 25 to 50 |  |  |  |  |  | 
N#C[C@@H]1CC(F)(F)CN1C(=O)C1CC(NC(=O)c2c[nH]c(=O)c3ccccc23)C1 (some centres unmarked) [Compound 101] | < 25 |  |  |  |  |  | 
N#C[C@@H]1CC(F)(F)CN1C(=O)CNC(=O)c1ccncc1/C=C/c1ccccc1 [Compound 124, (S,E)-N-(2-(2-cyano-4,4-difluoropyrrolidin-1-yl)-2-oxoethyl)-3-styrylisonicotinamide] | > 50 | < 1000 | < 1000 |  |  | 1000 to 10000 | 
N#C[C@@H]1CC(F)(F)CN1C(=O)CNC(=O)c1ccncc1CCc1ccccc1 [Compound 125, (S)—N-(2-(2-cyano-4,4-difluoropyrrolidin-1-yl)-2-oxoethyl)-3-phenethylisonicotinamide] | > 50 | < 1000 | < 1000 |  |  | 1000 to 10000 | 
N#C[C@@H]1CC(F)(F)CN1C(=O)CNC(=O)c1ccc(=O)[nH]c1-c1ccccc1 [compound 30] | < 25 |  |  |  |  |  | 
N#C[C@H]1CC(F)(F)CN1C(=O)CNC(=O)c1ccncc1C1CC1 [compound 37] |  |  |  |  |  |  | > 50

From patent US11780821B2, “Inhibitors of fibroblast activation protein” (Praxis Biotech LLC, priority 2017, dated 2023)
